Test [1] is described as follows: Inhibition of protein tyrosine kinase.
Test [2] deals with Human immunodeficiency virus type 1 reverse transcriptase (Human immunodeficiency virus 1) (UniProt Q72547). Put plainly: Inhibition of HIV1 reverse transcriptase.

Calls of active or inactive are those of the source. The calls are words filed in the database; no cut-off is given here.

`CC1=CC[C@@]2(C)C(=C(C)C(=O)[C@H](O)[C@@H]2C)CC1`: the outcome in test [1] and in test [2] was inactive.
Regarding `C=C1[C@@H]2CC[C@]13[C@H](C)C(=O)[C@@H](O)[C@@H](C)[C@]3(C)C2` (relative stereo), the result in test [1] and in test [2] was inactive.
On to `CC1=CC[C@@]2(C)C(=C(C)C(=O)[C@H](O)[C@@H]2C)[C@H](O)C1` (relative stereo), for which the result in test [1] and in test [2] was inactive.

(Values after ChEMBL document CHEMBL1150686, “Three new sesquiterpenes from the red alga Laurencia perforata” (J Nat Prod, 2003).)
